# Experimental data reported in patent publication US8969325B2, “TRPV1 antagonists” (AbbVie Inc., priority 2011, dated 2015).
# Key:
# [1] = molecular target: T1, human TRPV1 (Homo sapiens (Human), UniProt Q8NER1); test: Acid Activation Assay (pH 5.0, intracellular Ca2+, FLIPR); type: cell-based; conditions: percentage of the maximal pH 5.0-induced response remaining; recombinant HEK293 hTRPV1 cells; maximum concentration tested 37.5 μM
# Summary of the method: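 HEK293 cells stably expressing recombinant hTRPV1, loaded with Calcium-4 dye 90-120 min at 25° C. Compounds added over a 12-point half-log range (top 37.5 μM), then pH 5.0 DPBS/MES challenge after 3 min; FLIPR peak fluorescence over baseline given as % of maximal pH 5.0 response.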
# [2] = molecular target: T1, human TRPV1; test: Capsaicin Activation Assay (intracellular Ca2+, FLIPR); type: cell-based; conditions: recombinant HEK293 cells expressing hTRPV1, 50 nM capsaicin
# Summary of the method: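 Stably transfected HEK293 cells expressing human TRPV1 cDNA, plated the day before in poly-D-lysine plates. Compounds serially diluted from 10 mM DMSO stocks; intracellular Ca2+ fluorescence read on FLIPR at 1 to 5 second intervals.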
# T1 sequence (Q8NER1 whole entry): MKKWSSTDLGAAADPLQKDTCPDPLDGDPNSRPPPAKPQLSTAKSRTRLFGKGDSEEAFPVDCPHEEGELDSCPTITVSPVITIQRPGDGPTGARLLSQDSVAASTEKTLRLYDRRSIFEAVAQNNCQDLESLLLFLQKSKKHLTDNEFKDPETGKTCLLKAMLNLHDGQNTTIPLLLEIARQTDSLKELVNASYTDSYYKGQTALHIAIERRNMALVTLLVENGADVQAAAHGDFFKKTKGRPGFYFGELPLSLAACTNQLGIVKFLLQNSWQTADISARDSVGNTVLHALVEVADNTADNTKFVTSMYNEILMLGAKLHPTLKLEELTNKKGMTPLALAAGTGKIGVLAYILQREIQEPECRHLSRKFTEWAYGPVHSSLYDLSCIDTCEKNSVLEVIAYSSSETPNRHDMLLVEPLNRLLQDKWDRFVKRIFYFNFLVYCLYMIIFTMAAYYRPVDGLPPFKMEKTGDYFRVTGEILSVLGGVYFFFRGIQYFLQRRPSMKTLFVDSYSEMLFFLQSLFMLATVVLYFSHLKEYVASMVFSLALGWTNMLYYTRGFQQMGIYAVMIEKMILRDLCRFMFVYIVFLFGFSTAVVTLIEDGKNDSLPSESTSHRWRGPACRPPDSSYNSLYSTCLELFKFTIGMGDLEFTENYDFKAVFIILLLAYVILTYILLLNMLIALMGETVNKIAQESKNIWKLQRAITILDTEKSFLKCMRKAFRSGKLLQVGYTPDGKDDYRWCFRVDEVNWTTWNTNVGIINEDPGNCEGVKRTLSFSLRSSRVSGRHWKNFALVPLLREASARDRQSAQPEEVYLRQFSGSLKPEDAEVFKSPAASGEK
human TRPV1 H^+ (max % remain) [1] [%],IC50 [2] [nM],Structure (SMILES)
26,23,"CN1C(=O)NCc2c(NC(=O)N[C@@H]3CC(C)(C(F)F)Oc4cc(Cl)ccc43)cccc21 (stereo partly drawn) [Example 136, 1-[(4R)-7-chloro-2-(difluoromethyl)-2-methyl-3,4-dihydro-2H-chromen-4-yl]-3-(1-methyl-2-oxo-1,2,3,4-tetrahydroquinazolin-5-yl)urea]"
17,38,"CN1C(=O)NCc2c(NC(=O)N[C@@H]3CC(C)(C)Oc4cc(OC(F)(F)F)ccc43)cccc21 [Example 137, 1-[(4R)-2,2-dimethyl-7-(trifluoromethoxy)-3,4-dihydro-2H-chromen-4-yl]-3-(1-methyl-2-oxo-1,2,3,4-tetrahydroquinazolin-5-yl)urea]"
27,12,"CCC1(CC)C[C@@H](NC(=O)Nc2cccc3c2CNC(=O)N3C)c2cccc(F)c2O1 [Example 139, 1-[(4R)-2,2-diethyl-8-fluoro-3,4-dihydro-2H-chromen-4-yl]-3-(1-methyl-2-oxo-1,2,3,4-tetrahydroquinazolin-5-yl)urea]"
27,11,"CCC1(CC)C[C@@H](NC(=O)Nc2cccc3c2CNC(=O)N3C)c2ccccc2O1 [Example 140, 1-[(4R)-2,2-diethyl-3,4-dihydro-2H-chromen-4-yl]-3-(1-methyl-2-oxo-1,2,3,4-tetrahydroquinazolin-5-yl)urea]"
8,28,"CN1C(=O)NCc2c(NC(=O)N[C@@H]3CCc4cc(C(C)(C)C)ccc43)cccc21 [Example 141, 1-[(1R)-5-tert-butyl-2,3-dihydro-1H-inden-1-yl]-3-(1-methyl-2-oxo-1,2,3,4-tetrahydroquinazolin-5-yl)urea]"
18,110,"CN1C(=O)NCc2c(NC(=O)N[C@@H]3CCOc4c3cccc4C(C)(C)C)cccc21 [Example 142, 1-[(4R)-8-tert-butyl-3,4-dihydro-2H-chromen-4-yl]-3-(1-methyl-2-oxo-1,2,3,4-tetrahydroquinazolin-5-yl)urea]"

# Second part, the molecule before the results:
Structure (SMILES),human TRPV1 H^+ (max % remain) [1] [%],IC50 [2] [nM]
"C[C@@]1(C(F)F)C[C@@H](NC(=O)Nc2ccc3c(c2)NC(=O)CO3)c2ccccc2O1 [Example 130, 1-[(2S,4R)-2-(difluoromethyl)-2-methyl-3,4-dihydro-2H-chromen-4-yl]-3-(3-oxo-3,4-dihydro-2H-1,4-benzoxazin-6-yl)urea]",98,1000
"C[C@]1(C(F)F)C[C@@H](NC(=O)Nc2ccc3c(c2)NC(=O)CO3)c2ccccc2O1 [Example 131, 1-[(2R,4R)-2-(difluoromethyl)-2-methyl-3,4-dihydro-2H-chromen-4-yl]-3-(3-oxo-3,4-dihydro-2H-1,4-benzoxazin-6-yl)urea]",89,360
"O=C1COc2ccc(NC(=O)NCC3CCc4ccc(C(F)(F)F)cc4O3)cc2N1 (stereo not drawn) [Example 132, 1-(3-oxo-3,4-dihydro-2H-1,4-benzoxazin-6-yl)-3-{[7-(trifluoromethyl)-3,4-dihydro-2H-chromen-2-yl]methyl}urea]",98,31000
"O=C1COc2ccc(NC(=O)NCC3COc4ccc(F)cc4C3)cc2N1 (stereo not drawn) [Example 133, 1-[(6-fluoro-3,4-dihydro-2H-chromen-3-yl)methyl]-3-(3-oxo-3,4-dihydro-2H-1,4-benzoxazin-6-yl)urea]",100,2500
"C[C@H]1Oc2c(NC(=O)N[C@@H]3CC(CF)(CF)Oc4cc(Cl)ccc43)cccc2NC1=O [Example 134, 1-[(4R)-7-chloro-2,2-bis(fluoromethyl)-3,4-dihydro-2H-chromen-4-yl]-3-[(2R)-2-methyl-3-oxo-3,4-dihydro-2H-1,4-benzoxazin-8-yl]urea]",0,8
"CN1C(=O)NCc2c(NC(=O)N[C@@H]3CC(C)(C)Oc4c(F)cccc43)cccc21 [Example 135, 1-[(4R)-8-fluoro-2,2-dimethyl-3,4-dihydro-2H-chromen-4-yl]-3-(1-methyl-2-oxo-1,2,3,4-tetrahydroquinazolin-5-yl)urea]",32,31
